# Measurements published in PMC10787790, “Isatin-tethered halogen-containing acylhydrazone derivatives as monoamine oxidase inhibitor with neuroprotective effect” (Scientific Reports, 2024).
# What was measured:
# MAO-A [1] = settings: halogenated pyrazoline, no reference given; cited from earlier work
# MAO-A [2] = target: T1, MAO-A (Homo sapiens, UniProt P21397); assay: MAO-A inhibition assay (continuous, kynuramine); settings: for remaining activity at 10 µM: read-out: Residual activity at 10 µM (%) MAO-A
# T1 sequence (P21397 1-527): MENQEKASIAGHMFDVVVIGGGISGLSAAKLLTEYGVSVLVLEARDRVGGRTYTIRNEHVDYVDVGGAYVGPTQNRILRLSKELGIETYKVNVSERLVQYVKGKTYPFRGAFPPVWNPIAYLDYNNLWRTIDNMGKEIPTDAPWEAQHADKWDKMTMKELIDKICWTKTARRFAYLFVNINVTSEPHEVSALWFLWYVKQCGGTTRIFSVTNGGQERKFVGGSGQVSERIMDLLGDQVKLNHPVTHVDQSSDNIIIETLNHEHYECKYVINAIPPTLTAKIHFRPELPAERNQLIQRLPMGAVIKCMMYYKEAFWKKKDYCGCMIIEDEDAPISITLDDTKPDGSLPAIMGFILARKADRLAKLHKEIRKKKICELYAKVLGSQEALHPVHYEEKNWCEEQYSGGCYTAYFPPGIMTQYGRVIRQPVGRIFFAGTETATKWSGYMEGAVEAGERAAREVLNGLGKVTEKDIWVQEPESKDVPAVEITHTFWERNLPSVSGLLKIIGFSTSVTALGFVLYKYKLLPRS
# MAO-B [3] = target: T2, MAO-B (Homo sapiens, UniProt P27338); assay: MAO-B inhibition assay (continuous, benzylamine); settings: for remaining activity at 10 µM: read-out: Residual activity at 10 µM (%) MAO-B; for SI (selectivity index): (IC50 of MAO-A)/(IC50 of MAO-B), MAO-B compared to MAO-A
# T2 sequence (P27338 1-520): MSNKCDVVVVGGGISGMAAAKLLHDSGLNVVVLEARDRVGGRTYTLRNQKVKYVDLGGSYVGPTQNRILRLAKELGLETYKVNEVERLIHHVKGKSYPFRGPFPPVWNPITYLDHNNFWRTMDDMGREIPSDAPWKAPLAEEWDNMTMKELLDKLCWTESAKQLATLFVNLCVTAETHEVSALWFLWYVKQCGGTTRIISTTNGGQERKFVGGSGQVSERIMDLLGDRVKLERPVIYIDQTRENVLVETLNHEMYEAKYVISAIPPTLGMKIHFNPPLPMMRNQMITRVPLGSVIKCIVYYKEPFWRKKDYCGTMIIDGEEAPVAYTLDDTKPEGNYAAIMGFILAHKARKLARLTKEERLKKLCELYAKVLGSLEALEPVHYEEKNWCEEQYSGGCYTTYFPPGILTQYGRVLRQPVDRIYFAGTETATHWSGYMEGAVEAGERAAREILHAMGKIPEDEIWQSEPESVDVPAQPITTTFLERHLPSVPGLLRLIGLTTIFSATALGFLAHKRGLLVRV
# MAO-A [4] = target: T1, MAO-A; assay: Reversibility study by dialysis, MAO-A
# MAO-A [5] = target: T1, MAO-A; assay: Enzyme kinetics, Lineweaver-Burk and secondary plots, MAO-A
# SOD = assay: Superoxide dismutase (SOD) activity in LPS-induced SH-SY5Y cells; format: cell-based, human; settings: 10 µM/mL
# TNF-α = TNF-α expression in LPS-induced SH-SY5Y cells; format: cell-based, human; settings: for TNF-alpha level vs LPS-treated group: LPS 1 µg/mL 2 h, compound 24 h, SH-SY5Y
# GPx = assay: Glutathione peroxidase (GPx) activity in LPS-induced SH-SY5Y cells; format: cell-based, human; settings: 10 µM/mL
# [6] = Parallel artificial membrane permeability assay (PAMPA), BBB; format: in vitro ADME; settings: for Experimental Pe: pH 7.4; for Papp: pH 7.4, read-out: Experimental Pe
# Procedure: The blood–brain barrier (BBB) permeation abilities of the four lead molecules were analyzed using the PAMPA method[44],[45]. The detailed procedure is explained in the Supplementary Data.
# Using a microtiter plate with 96 wells and a Millipore filter plate with 96 wells (ipvh, 125 μm thick filter, 0.45 μm pore), which was then saturated with 0.1 mL of n-dodecane, a "sandwich" structure was created in PAMPA. Stock solutions of drug samples in DMSO were created at a 10 mM concentration. The stock solution was diluted in buffer at pH 7.4 before being added to a 96-well filter plate in order to achieve a final sample concentration (0.01, 0.1, and 1 mM) and keep the DMSO concentration at 1% (v/v). The final dilutions were divided into 270 μL for the donor wells and 200 μL of pH 7.4 buffer for the acceptor well. The donor plate was placed on the top of the acceptor filter plate to form a sandwich (comprising of a synthetic lipid membrane in the center, an aqueous receiver on […], and an aqueous donor carrying an analyte on the bottom.). The test substance diffuses from the donor well across the lipid membrane and into the acceptor well. The sandwich is said to have been intact when the penetration occurred. The drug concentration in the reference, donor, and receiver wells was measured using UV spectroscopy. The rate of penetration is calculated using the following expression.
# Log Pe = -ln [1-CA /Equilibrium]/A× (1/VD + 1/VA) × t
# IL-6 = IL-6 expression in LPS-induced SH-SY5Y cells; format: cell-based, human; settings: for IL-6 level vs LPS-treated group: LPS 1 µg/mL 2 h, compound 24 h, SH-SY5Y
# CAT = assay: Catalase (CAT) activity in LPS-induced SH-SY5Y cells; format: cell-based, human; settings: 10 µM/mL
# ROS = ROS assay (DCF) in LPS-treated SH-SY5Y cells; format: cell-based, human; settings: for DCF intensity decrease at 10 µM: 10 µM/mL (10 µM), vs LPS-induced cells; for DCF expression (ROS) vs cells treated with LPS alone: LPS-induced SH-SY5Y
# NF-kB = NF-kB expression in LPS-induced SH-SY5Y cells; settings: for NF-kB level vs LPS-treated group: LPS 1 µg/mL 2 h, compound 24 h, SH-SY5Y
# SH-SY5Y cells = assay: MTT cytotoxicity assay; format: cell-based, human; settings: 24 h
# MAO-B [7] = target: T2, MAO-B; assay: Reversibility study by dialysis, MAO-B
# MAO-B [8] = target: T2, MAO-B; assay: Enzyme kinetics, Lineweaver-Burk and secondary plots, MAO-B; format: biochemical; design: purchased Sigma-Aldrich
SMILES,IC50 (MAO-A [2]) [µM],remaining activity at 10 µM (MAO-A [2]) [%],IC50 (MAO-B [3]) [µM],remaining activity at 10 µM (MAO-B [3]) [%],SI (selectivity index) (MAO-B [3]),Experimental Pe [6] [×10⁻⁶ cm/s],Papp [6] [×10⁻⁶ cm/s],CNS/BBB permeability in words [6],Prediction (CNS permeation class) [6],other results
CCOc1ccc(C2=NNC(c3ccc(Br)cc3)C2)cc1 (stereo not shown) [EH8],–,–,–,–,–,–,–,–,–,IC50 (MAO-A [1]): 4.31 µM
O=C1Nc2ccc(F)cc2/C1=N/NC(=O)c1ccccc1 [IS9],> 40,67.4 ± 1,9.09 ± 1.28,45.6 ± 6.28,–,–,–,–,–,–
O=C1Nc2ccccc2/C1=N/NC(=O)c1ccc(Cl)cc1 [IS6],–,–,–,–,–,> 4,4.86 ± 0.26,high permeability and CNS bioavailability,CNS+ (Pe (10^−6 cm/s) > 4.00: CNS + (high permeation)),–
O=C1Nc2ccccc2/C1=N/NC(=O)c1ccc(Br)cc1 [IS7],19.2 ± 5.96,50.8 ± 7.29,0.082 ± 0.01,3.2 ± 0.77,233.85,> 4,5.02 ± 0.19,high permeability and CNS bioavailability,CNS+ (Pe (10^−6 cm/s) > 4.00: CNS + (high permeation)),"Cell viability at 100 μM (SH-SY5Y cells; 100 μM): remarkably decreased cell viability; IC50 (SH-SY5Y cells; Homo sapiens): 97.2 µM; MAO-B relative activity, dialyzed (AD) (MAO-B [7]; […] IC50, 30 min pre-incubation, dialyzed): 72.89%; MAO-B relative activity, undialyzed (AU) (MAO-B [7]; […] IC50, 30 min pre-incubation, undialyzed): 28.65%; Reversibility of MAO-B inhibition (MAO-B [7]; dialysis): reversible-type inhibitors; SOD (cellular anti-oxidant enzyme) effect (SOD): enhancing the enzyme activity; TNF-alpha level vs LPS-treated group (TNF-α): significantly (p < 0.0001) reduced; TNF-alpha level compared to IS13 and IS15 (TNF-α; LPS-treated cell lines): significantly decreased; GPx (cellular anti-oxidant enzyme) effect (GPx): enhancing the enzyme activity; Fold higher MAO-B inhibition than IS5 (MAO-B [3]; relative to basic compound IS5): 50.4 ×; IL-6 level vs LPS-treated group (IL-6): significantly (p < 0.0001) reduced; IL-6 level compared to IS13 and IS15 (IL-6; LPS-treated cell lines): significantly decreased; Type of MAO-B inhibition (MAO-B [8]; LB plot): competitive; Ki (MAO-B [8]; secondary plot of LB slopes vs inhibitor concentration): 0.044 ± 0.002 µM; CAT (cellular anti-oxidant enzyme) effect (CAT): enhancing the enzyme activity; DCF intensity decrease at 10 µM (ROS): effective DCF intensity decrease; DCF expression (ROS) vs cells treated with LPS alone (ROS): significantly inhibited (p < 0.0001); NF-kB level vs LPS-treated group (NF-kB): significantly (p < 0.0001) reduced"
O=C1Nc2ccc(Br)cc2/C1=N/NC(=O)c1ccccc1 [IS1],> 40,83.1 ± 2.34,0.42 ± 0.028,22 ± 2.75,> 95.24,–,–,–,–,–

# Further compounds by falling IC50 (MAO-A [2]), results first:
IC50 (MAO-A [2]) [µM],remaining activity at 10 µM (MAO-A [2]) [%],IC50 (MAO-B [3]) [µM],remaining activity at 10 µM (MAO-B [3]) [%],SI (selectivity index) (MAO-B [3]),Experimental Pe [6] [×10⁻⁶ cm/s],Papp [6] [×10⁻⁶ cm/s],SMILES,CNS/BBB permeability in words [6],Prediction (CNS permeation class) [6],other results
11.3 ± 0.414,53.1 ± 0.91,0.234 ± 0.008,23 ± 2.48,48.15,–,–,O=C1Nc2ccc(Cl)cc2/C1=N/NC(=O)c1ccc(Cl)cc1 [IS14],–,–,–
9.16 ± 0.324,46.9 ± 2.73,0.269 ± 0.004,1.18 ± 2.04,34.03,–,–,O=C1Nc2ccc(Br)cc2/C1=N/NC(=O)c1ccc(Cl)cc1 [IS2],–,–,–
8.45 ± 0.395,43.7 ± 1.65,3.85 ± 0.392,26.1 ± 4.39,2.20,–,–,O=C1Nc2ccc(Cl)cc2/C1=N/NC(=O)c1ccc(F)cc1 [IS16],–,–,–
1.85 ± 0.085,34.7 ± 0.71,0.337 ± 0.007,12.5 ± 3.64,5.50,> 4,4.39 ± 0.3,O=C1Nc2ccc(Cl)cc2/C1=N/NC(=O)c1ccc(Br)cc1 [IS15],high permeability and CNS bioavailability,CNS+ (Pe (10^−6 cm/s) > 4.00: CNS + (high permeation)),Reversibility of MAO-A inhibition (MAO-A [4]): reversible-type inhibitors; Ki (MAO-A [5]): 1 ± 0.171 µM; Type of MAO-A inhibition (MAO-A [5]; LB plot): competitive; SOD (cellular anti-oxidant enzyme) effect (SOD): enhancing the enzyme activity; TNF-alpha level vs LPS-treated group (TNF-α): significantly (p < 0.0001) reduced; Fold higher MAO-A inhibition than IS7 (MAO-A [2]; relative to IS7): 10.35 times; Fold higher MAO-A inhibition than IS13 (MAO-A [2]; relative to IS13): 11.94 times; GPx (cellular anti-oxidant enzyme) effect (GPx): enhancing the enzyme activity; IL-6 level vs LPS-treated group (IL-6): significantly (p < 0.0001) reduced; CAT (cellular anti-oxidant enzyme) effect (CAT): enhancing the enzyme activity; DCF intensity decrease at 10 µM (ROS): effective DCF intensity decrease; DCF expression (ROS) vs cells treated with LPS alone (ROS): significantly inhibited (p < 0.0001); NF-kB level vs LPS-treated group (NF-kB): significantly (p < 0.0001) reduced; NF-kB expression compared to IS6 and IS7 (NF-kB; LPS-treated cell lines): significantly lower
